Assays:
[1] = system: panel of 12 human tumour cell lines; assay: monolayer proliferation assay (modified propidium iodide assay) in a panel of 12 human tumour cell lines; type: cell-based; conditions: for Mean % T/C at 1 μM / Mean % T/C at 10 μM: mean growth across 12 cell-line panel, treated/control x 100, 4 days exposure; for Mean percentage Inhibition of cancer cell lines at 1 uM: 100 minus mean %T/C at 1 uM of Table III
Method: In vitro evaluation of compounds for anticancer activity in a panel of 12 human tumour cell lines in a monolayer proliferation assay was carried out at the Oncotest Testing Facility, Institute for Experimental Oncology, Oncotest GmbH, Freiburg.
The Oncotest cell lines were established from human tumor xenografts as described by Roth et al., (1999). The origin of the donor xenografts was described by Fiebig et al., (1999). Other cell lines were either obtained from the NCI (H460, SF-268, OVCAR-3, DU145, MDA-MB-231, MDA-MB-468) or purchased from DSMZ, Braunschweig, Germany (LNCAP).
All cell lines, unless otherwise specified, were grown at 37° C. in a humidified atmosphere (95% air, 5% CO2) in a ‘ready-mix’ medium containing RPMI 1640 medium, 10% fetal calf serum, and 0.1 mg/mL gentamicin (PAA, Cölbe, Germany).
A modified propidium iodide assay was used to assess the effects of the test compound(s) on the growth of human tumour cell lines (Dengler et al., (1995)).
Briefly, cells were harvested from exponential phase cultures by trypsinization, counted and plated in 96 well flat-bottomed microtitre plates at a cell density dependent on the cell line (5-10.000 viable cells/well). After 24 h recovery to allow the cells to resume exponential growth, 0.010 mL of culture medium (6 control wells per plate) or culture medium containing macbecin were added to the wells. Each concentration was plated in triplicate. Compounds were applied in two concentrations (0.001 mM and 0.01 mM). Following 4 days of continuous exposure, cell culture medium with or without test compound was replaced by 0.2 mL of an aqueous propidium iodide (PI) solution (7 mg/L). To measure the proportion of living cells, cells were permeabilized by freezing the plates. After thawing the plates, fluorescence was measured using the Cytofluor 4000 microplate reader (excitation 530 nm, emission 620 nm), giving a direct relationship to the total number of viable cells.
The mean growth inhibition across the 12 cell-line panel was expressed as treated/control×100 (% T/C).
In vitro evaluation of the test compounds for anticancer activity in a panel of human tumour cell lines in a monolayer proliferation assay was carried out as described in the general methods using a modified propidium iodide assay. This screen may be used as a model for the toxic effect of compounds in inhibiting general cell growth.

CAM vasculature = assay: Chick chorioallantoic membrane (CAM) assay of anti-angiogenic activity; type: in vivo; conditions: for Ratio of inhibition of CAM vasculature at 25 ng/CAM to in vitro cancer cell inhibition at 1 uM: 25 ng/CAM versus 1 uM in cancer cell panel; for Mean blood vessel density score: angiogenesis score up to 32 (highest density), 0 = no angiogenesis, mean of ten experiments; for anti-angiogenic therapeutic index (ratio of anti-angiogenesis to general cell inhibition), in words: as compared to 1 and 6
Method: Fresh fertile eggs were be incubated for 3 days in a standard egg incubator at 37° C. for 3 days. On Day 3, eggs were cracked under sterile conditions and embryos were placed into 20×100 mm plastic plates and cultivated at 37° C. in an embryo incubator with a water reservoir on the bottom shelf. Air was continuously bubbled into the water reservoir using a small pump so that the humidity in the incubator was kept constant. […] Embryos were returned to the incubator after addition of test material. Control embryos received 10 μL of vehicle alone. […] The blood vessel density was semi-quantitatively measured using an angiogenesis scoring system, in that exponential numbers 1 to 32 were used to indicate number of blood vessels present at the treatment sites on the CAM. Number 32 represented the highest density and 0 represented no angiogenesis. The percent of inhibition at each dosing site was calculated using the score recorded for that site divided by the mean score obtained from the appropriate control samples for each individual experiment. The percent of inhibition for each dose of a given compound was calculated by pooling all results obtained for that dose.

[2] = Cleavage studies in rat blood to give the parent acid 6; type: in vitro ADME; conditions: rat blood (EDTA), 0.01 mg/mL, 37° C.; for cleavage to give the parent compound 6: up to 180 minutes
Method: The sample was diluted to a volume of 1 mL by addition of 0.1 M aqueous KH2PO4. […] An Oasis MAX cartridge (1 cc/30 mg) was conditioned with 1 mL MeOH and 1 mL water successively. The supernatant was transferred to the conditioned cartridge at a flow rate of 1-2 mL/min. […] The extracts were transferred to autosampler vials and immediately analysed by LC/MS. […] LCMS was performed on a Bruker Daltonics Esquire 3000+ mass spectrometer equipped with an electrospray source coupled to the HPLC. […] Injection volume: 0.05 mL. HPLC was performed on a Waters Symmetry C8 3.5 micron column, 50 mm×2.1 mm, running a mobile phase of: mobile phase A: 0.1% formic acid in water; mobile phase B: 0.1% Formic acid in acetonitrile; flow rate: 1 mL/minute. […] Fragmentation of this molecular species results in a spectrum with intense ions at m/z 271 and 412. The daughter ion at m/z 412 can be ideally selected for quantification.

endothelial cells = conditions: with respect to borrelidin; WO 01/09113; cited from earlier work
[3] = system: Lewis lung adenocarcinoma; conditions: rats; intraperitoneal and per os administration at subtoxic doses; cited from earlier work
[4] = system: mouse colon adenocarcinoma cells; conditions: subtoxic dose; cited from earlier work

| Molecule | Mean % T/C at 1 μM [1] [% T/C] | Mean % T/C at 10 μM [1] [% T/C] | inhibition of cell growth at 1 μM (in words) [1] | other results |
| --- | --- | --- | --- | --- |
| C[C@@H]1C[C@H](C)C[C@H](C)[C@@H](O)CC(=O)O[C@@H](C2CC[C@H]2C(=O)O)C/C=C/C=C(/C#N)[C@H](O)[C@@H](C)C1 (stereo partly drawn) [Compound 6, 17-des(cyclopentane-2-carboxylic acid)-17-(cyclobutane-2-carboxylic acid)borrelidin] | 33 | 8 | – | inhibition at 1 µM ([1]; Homo sapiens, read-out: Mean percentage Inhibition of cancer cell lines at 1 uM): 67%; Mean percentage inhibition of CAM vasculature at 25 ng/CAM (CAM vasculature): 51%; Ratio of inhibition of CAM vasculature at 25 ng/CAM to in vitro cancer cell inhibition at 1 uM (CAM vasculature): 0.76; Mean blood vessel density score (CAM vasculature): 8.2 |
| CC1CC(C)CC(C)C(O)C(C#N)=CC=CCC(C2CCC2C(=O)NCCc2cccnc2)OC(=O)CC(O)C(C)C1 (stereo not drawn) [Compound 13, 17-des(cyclopentane-2-carboxylic acid)-17-(cyclobutane-2-carboxylic acid)borrelidin (3-(2-aminoethyl))pyridine amide] | 97 | 37 | little or no inhibition of cell growth | cleavage to give the parent compound 6 [2]: did not cleave |
| C[C@@H]1C[C@H](C)C[C@H](C)[C@@H](O)CC(=O)O[C@H]([C@@H]2CCC[C@H]2C(=O)NCCN2CCOCC2)C/C=C/C=C(/C#N)[C@H](O)[C@@H](C)C1 [borrelidin-morpholinoethyl amide] | – | – | – | selectivity index for capillary formation inhibitory activity versus cell proliferation (endothelial cells): 6 fold |
| CC1CC(C)CC(C)C(O)CC(=O)OC(C2CCCC2C(=O)NCc2cccnc2)C(C#N)=CC=CCC(O)C(C)C1 (stereo not drawn) [borrelidin-(3-picolylamide) derivative, borrelidin-(3-picolylamide)] | – | – | – | increase of micrometastases [3]: inhibit very considerably; metastasis-forming ability of mouse colon adenocarcinoma cells transplanted into mouse spleen [4]: considerably decreased |
| C[C@@H]1C[C@H](C)C[C@H](C)[C@@H](O)CC(=O)O[C@H]([C@@H]2CCC[C@H]2C(=O)OCCN2CCOCC2)C/C=C/C=C(/C#N)[C@H](O)[C@@H](C)C1 [borrelidin-morpholinoethyl ester] | – | – | – | selectivity index for capillary formation inhibitory activity versus cell proliferation (endothelial cells): 60 fold |
| CC1CC(C)CC(C)C(O)C(C#N)=CC=CCC(C2CCC2C(=O)NCc2ccncc2)OC(=O)CC(O)C(C)C1 (stereo not drawn) [Compound 10, 17-des(cyclopentane-2-carboxylic acid)-17-(cyclobutane-2-carboxylic acid)borrelidin (4-aminomethyl)pyridine amide] | 104 | 57 | little or no inhibition of cell growth | – |
| 17-des(cyclopentane-2-carboxylic acid)-17-(cyclobutane-2-carboxylic acid)borrelidin (2-(2-hydroxyethyl)pyridine ester [Compound 8] | 40 | 6 | – | – |
| CC1CC(C)CC(C)C(O)C(C#N)=CC=CCC(C2CCC2C(=O)NCCN2CCOCC2)OC(=O)CC(O)C(C)C1 (stereo not drawn) [Compound 9, 17-des(cyclopentane-2-carboxylic acid)-17-(cyclobutane-2-carboxylic acid)borrelidin (4-(2-aminoethyl))morpholine amide] | 101 | 43 | little or no inhibition of cell growth | Mean percentage Inhibition of cancer cell lines at 1 uM [1]: 0%; Mean percentage inhibition of CAM vasculature at 25 ng/CAM (CAM vasculature): 60%; Ratio of inhibition of CAM vasculature at 25 ng/CAM to in vitro cancer cell inhibition at 1 uM (CAM vasculature): >60; Mean blood vessel density score (CAM vasculature): 6.8; anti-angiogenic therapeutic index (ratio of anti-angiogenesis to general cell inhibition), in words (CAM vasculature): especially good; cleavage to give the parent compound 6 [2]: did not cleave |
| CC1CC(C)CC(C)C(O)C(C#N)=CC=CCC(C2CCCC2C(=O)OCCc2ccccn2)OC(=O)CC(O)C(C)C1 (stereo not drawn) [borrelidin-(2-pyridyl)-ethyl ester] | – | – | – | selectivity index for capillary formation inhibitory activity versus cell proliferation (endothelial cells): 7.5 fold |
| 17-des(cyclopentane-2-carboxylic acid)-17-(cyclobutane-2-carboxylic acid)borrelidin (4-(2-hydroxyethyl))morpholine ester [Compound 7] | 36 | 8 | – | Mean percentage Inhibition of cancer cell lines at 1 uM [1]: 64%; Mean percentage inhibition of CAM vasculature at 25 ng/CAM (CAM vasculature): 54%; Ratio of inhibition of CAM vasculature at 25 ng/CAM to in vitro cancer cell inhibition at 1 uM (CAM vasculature): 0.84; Mean blood vessel density score (CAM vasculature): 7.8; anti-angiogenic therapeutic index (ratio of anti-angiogenesis to general cell inhibition), in words (CAM vasculature): improved; half-life for the cleavage to parent compound 6 [2]: ~12 min; cleavage to give the parent compound 6 [2]: rapidly cleaved |
| CC1CC(C)CC(C)C(O)C(C#N)=CC=CCC(C2CCC2C(N)=O)OC(=O)CC(O)C(C)C1 (stereo not drawn) [Compound 14, 17-des(cyclopentane-2-carboxylic acid)-17-(cyclobutane-2-carboxylic acid)borrelidin amide] | 92 | 26 | little or no inhibition of cell growth | – |
| borrelidin-amide | – | – | – | selectivity index for capillary formation inhibitory activity versus cell proliferation (endothelial cells): 37 fold |
| CC1CC(C)CC(C)C(O)C(C#N)=CC=CCC(C2CCC2C(=O)NCc2ccccn2)OC(=O)CC(O)C(C)C1 (stereo not drawn) [Compound 12, 17-des(cyclopentane-2-carboxylic acid)-17-(cyclobutane-2-carboxylic acid)borrelidin (2-aminomethyl)pyridine amide] | 87 | 15 | little or no inhibition of cell growth | – |
| CC1CC(C)CC(C)C(O)C(C#N)=CC=CCC(C2CCC2C(=O)NCc2cccnc2)OC(=O)CC(O)C(C)C1 (stereo not drawn) [Compound 11, 17-des(cyclopentane-2-carboxylic acid)-17-(cyclobutane-2-carboxylic acid)borrelidin (3-aminomethyl)pyridine amide] | 97 | 20 | little or no inhibition of cell growth | – |
